Reference: US20260166182A1, “CYANINE-BASED FLUOROPHORES” (The General Hospital Corporation, priority 2022, published 2026)
“Also recorded” adds a separate entry of the source. Blank lines part the entries; values can stand above or below the molecule they belong to.

What was measured:
[1] = system: lung carcinoma (LLC cell line); assay: NIR-II fluorescence imaging of subcutaneous LLC tumor-bearing C57BL/6 mice; format: in vivo, mouse
From the text: General NIR-II fluorescence imaging: A 640×512-pixel InGaAs camera (Ninox640, Raptor Photonics) and macro zoom lens (0-10×; Navitar Zoom 7000 with SWIR coating) along with 900, 1070, 1100, and 1200 nm long-pass (LP) filters from either Thorlab or Edmund optics were used to collect the NIR-II signal. InGaAs camera played a role as an open-air imaging system along with the support of the FLARE system. An 808 nm fiber-coupled diode laser ([…] at the sample) was used as an excitation source. Data acquisition was done using in-house developed software. […] Mice were imaged with intact skin using InGaAs camera. At least 3 mice were analyzed for each sample. Tumor-bearing mouse models: Animals were housed in an AAALAC-certified facility and were studied under the protocols approved by the MGH IACUC (2016N000136). Mice were maintained under anesthesia with isoflurane and oxygen during the experiment. To establish the various tumor-bearing mouse models including lung carcinoma, pancreatic ductal adenocarcinoma (PDAC), and triple negative breast adenocarcinoma, eight-week-old C57BL/6 mice (Taconic Farms, Germantown, NY) were subcutaneously injected with 2×10^5 LLC, Pan02, and E0771 cells suspended in DMEM/Matrigel (100 μL, 50 v/v %) in the flank region, respectively. Female C57BL/6 mice were used for the breast cancer (E0771) model, otherwise male mice were used. […] Statistical analysis: The fluorescence and background intensities of a region of interest over each tissue were quantified using customized imaging software and ImageJ v1.48 (National Institutes of Health, Bethesda, MD). The signal-to-background ratio (SBR) was calculated as SBR=fluorescence/background, where background was the fluorescence intensity of muscle. Data were reported as mean±s.e.m. with a minimum of three biological replicates. Student's t-test statistical analysis was performed to evaluate the significance of the experimental data. The differences among groups were determined using one-way ANOVA analysis to assess the statistical differences among more than two groups. […] The data was indicated with *p<0.05, ** p<0.01, *** p<0.001, and **** p<0.0001.

[2] = Optical study in EtOH, DMSO, HEPES and PBS; format: physicochemical
Procedure: (§1) Optical Study, Photostability, Physicochemical Properties, and DFT Calculation: 1 mM stock solution in DMSO of the synthesized fluorophores was prepared before starting any spectral measurement. Optical properties for the synthesized fluorophores were measured in four different solvents (EtOH, DMSO, HEPES, and PBS). Absorbance spectra were measured in a Varian Cary 50 absorbance spectrophotometer (190-1100 nm). Fluorescence emission and photostability were measured and emission spectra were recorded on a Shimadzu RF-5301PC spectrofluorometer. Physicochemical properties (Log D, molecular mass, TPSA, H bond D/A, polarizability, molecular volume, and rotatable bonds) were predicted by ChemAxon (JChem plugin). Theoretical calculations of frontier molecular orbitals (FMOs) for the optimized structures of selected fluorophores were calculated based on DFT calculations at the B3LYP/6-311G(d,p) level.
In vivo success of a contrast agent can depend on the absorption and emission profiles, molar extinction coefficient, quantum yield, molecular brightness, physicochemical properties, and photochemical stability. Different types of polymethine bridges can have an impact on the structural geometry of the fluorophores and the absorption and emission profiles. Optical properties were measured in polar protic EtOH, polar aprotic DMSO, and two buffer solutions, phosphate-buffered saline (PBS, PH ˜7.4) and 4-(2-hydroxyethyl)-1-piperazine-ethanesulfonic acid (HEPES, PH ˜7.4). Organic solvents such as ethanol (EtOH) and dimethyl sulfoxide (DMSO) are often used in spectroscopic experiments to observe the absorption and emission maximum, whereas buffer solvents PBS and HEPES were used to mimic the biological environment, as these synthesized fluorophores are intended to be used in bioimaging. The absorbance profiles of these fluorophores were recorded at various concentrations (0.8, 1.6, 2.4, 3.2, 4.0 μM) and the absorbance values obtained were plotted against each of the concentrations. […] Fluorophores 18-21 refer to the labels in Example 4 and FIG. 7D.
The molar extinction coefficient is an intrinsic property of any fluorophore and can be important for high image resolution. […] These properties vary with the structure change and are difficult to predict beforehand. The optical properties of the synthesized fluorophores were measured in various media. All measurements were performed in 2 different organic solvents (EtOH and DMSO) and 2 different buffer (HEPES and PBS), and ICG was used as a reference (ΦICG=0.043).

[3] = Photostability under xenon lamp irradiation; format: physicochemical; settings: 2 h
Procedure: as §1
In consideration of theranostic (therapeutics and diagnostic) applications, NIR cyanine fluorophores are synthesized for fluorescence imaging, photodynamic therapy (PDT), photothermal therapy (PTT), optoacoustic imaging, and cancer immunotherapy. One of the approaches before using these fluorophores in those applications is to study their biodistribution and clearance pattern in vivo. […] The power density of 150 W is much higher than the required power for fluorescence imaging, considering that the time it takes for a fluorophore to clear from the background and accumulate in sufficient quantities in the targeted tissues is unknown. […] By considering this, an aliquot of the stock solution (1 mM in DMSO) was diluted in ethanol, and the fluorescence intensity was measured at the excitation wavelength same as their absorption maxima (nm). Photodegradation rates were measured every 20 min intervals for the selected fluorophores based on the % reduced fluorescence intensity starting from 100%. […] The data were collected in every 20 min intervals under continuous irradiation with a xenon lamp at 150 W for 2 h and presented based on the % reduced fluorescence intensity starting from 100%. […]

LLC and Raw264.7 cells = assay: In vitro inhibition study of SH1 cellular uptake; format: cell-based; settings: 2 μM SH1, 15 min
Procedure: In vitro inhibition study: LLC and Raw264.7 cells were seeded and incubated at a density of 20,000 cells/plate in a 24-well plate. […] Cells were then incubated with 2 μM of SH1 at 37° C. for 15 min. […] After washing twice with HBSS buffer, the cells were imaged using a Nikon TE2000 epifluorescence microscope (TE2000U; Nikon) equipped with a 75-W xenon light source, NIR-compatible optics, and a NIR-compatible 4×, 10×, and 20× Plan Fluor objective lens (Nikon, Melville, NY) with a customized filter set.

[4] = In vivo biodistribution study of NIR fluorophores in CD-1 mice; parameters: species or system mouse; settings: 25 nmol intravenous, 4 h post-injection
Procedure: In Vivo Biodistribution Study of NIR Fluorophores: Under the supervision of the MGH IACUC, animals were housed in an AAALAC-certified facility and studied according to institutional protocol #2016N000136. In preparation for injection, CD-1 mice (25-30 g, 6 weeks, Charles River Laboratories, Wilmington, MA) were anesthetized with isoflurane and oxygen. A 10 mM stock solution of NIR fluorophores was prepared in DMSO, and 25 nmol of each molecule was diluted in BSA-containing saline (5 wt/v %) for intraoperative imaging. After 4 h post-injection, mice were imaged. For each experiment, camera exposure time and image normalization were held constant.
Quantitative Analysis: The fluorescence and background intensity of a region of interest (ROI) over each tissue was quantified using ImageJ software (NIH, Bethesda, MD) version 1.45q. The signal-to-background ratio (SBR) was calculated as SBR=fluorescence/background, where background is the signal intensity of neighboring tissues such as muscle. All NIR fluorescence images for a particular fluorophore were normalized identically for all conditions of an experiment.

SMILES: CCCCN1/C(=C/C=C/C=C/C=C/C2=[N+](CCCC)c3ccc(Cl)cc3C2(C)C)C(C)(C)c2cc(Cl)ccc21 [SH2, 1-butyl-2-((1E,3E,5E)-7-((E)-1-butyl-5-chloro-3,3-dimethylindolin-2-ylidene)hepta-1,3,5-trien-1-yl)-5-chloro-3,3-dimethyl-3H-indol-1-ium iodide]
- NIR-II signal intensity of abdominal and dissected tumor image ([1]; NIR-II region): low signal intensity in NIR-II region

- emission wavelength ([2]; DMSO): 817 nm
- photodegradation (% reduced fluorescence intensity) [3]: 7-12%
SMILES: CC1(C)C(/C=C/C2=C(Cl)C(=C/C=C3/N(CCCc4ccccc4)c4ccc(Cl)cc4C3(C)C)/CCC2)=[N+](CCCc2ccccc2)c2ccc(Cl)cc21.[Br-] [fluorophore 19, 5-Chloro-2-((E)-2-((E)-2-chloro-3-(2-((E)-5-chloro-3,3-dimethyl-1-(3-phenylpropyl)indolin-2-ylidene)ethylidene)cyclohex-1-en-1-yl)vinyl)-3,3-dimethyl-1-(3-phenylpropyl)-3H-indol-1-ium Bromide]

SMILES: O=C1NC(=NS(=O)(=O)c2cccc3ccccc23)S/C1=C\c1ccc(Br)cc1 [Pitstop 2]
- effect of inhibitor pretreatment on SH1 cellular uptake (LLC and Raw264.7 cells): did not result in any appreciable change in cellular uptake

SMILES: CCCCN1/C(=C/C=C2\CCCC(/C=C/C3=[N+](CCCC)c4ccc(Br)cc4C3(C)C)=C2Cl)C(C)(C)c2cc(Br)ccc21.[I-] [fluorophore 20, 5-Bromo-2-((E)-2-((E)-3-(2-((E)-5-bromo-1-butyl-3,3-dimethylindolin-2-ylidene)ethylidene)-2-chlorocyclohex-1-en-1-yl)vinyl)-1-butyl-3,3-dimethyl-3H-indol-1-ium Iodide]
- quantum yield ([2]; PBS): 0.01
- tissue/organ signals [4]: high signals in the primary and secondary lymphoid tissues

SMILES: CCN1/C(=C/c2ccc3ccccc3[n+]2CC)C=Cc2ccccc21.[I-] [D22, 1,1′-Diethyl-2,2′-cyanine iodide]
- effect of inhibitor pretreatment on SH1 cellular uptake (LLC and Raw264.7 cells): Neither bromosulphophthalein, cyclosporin A (both OATP inhibitors), D22 (OCT inhibitor), nor MK-571 (ABC transporter inhibitor) significantly inhibited SH1 uptake

SMILES: O=C1OC(c2ccc(O)c(S(=O)(=O)O)c2)(c2ccc(O)c(S(=O)(=O)O)c2)c2c(Br)c(Br)c(Br)c(Br)c21 [bromosulphophthalein, bromsulphthalein]
- effect of inhibitor pretreatment on SH1 cellular uptake (LLC and Raw264.7 cells): Neither bromosulphophthalein, cyclosporin A (both OATP inhibitors), D22 (OCT inhibitor), nor MK-571 (ABC transporter inhibitor) significantly inhibited SH1 uptake

SMILES: O=C(N/N=C/c1cc(O)c(O)cc1O)c1cc2ccccc2cc1O [dingo 4a]
- effect of inhibitor pretreatment on SH1 cellular uptake (LLC and Raw264.7 cells): significantly inhibited the internalization

SMILES: CN(C)C(=O)CCSC(SCCC(=O)O)c1cccc(/C=C/c2ccc3ccc(Cl)cc3n2)c1 (stereo not drawn) [MK-571]
- effect of inhibitor pretreatment on SH1 cellular uptake (LLC and Raw264.7 cells): Neither bromosulphophthalein, cyclosporin A (both OATP inhibitors), D22 (OCT inhibitor), nor MK-571 (ABC transporter inhibitor) significantly inhibited SH1 uptake

- quantum yield ([2]; EtOH): 0.33
- quantum yield ([2]; PBS): 0.01
- molecular brightness ([2]; highest observed): 79,664 cm^−1 M^−1
SMILES: CCCCN1/C(=C/C=C2\CCCC(/C=C/C3=[N+](CCCC)c4ccccc4C3(C)C)=C2Cl)C(C)(C)c2ccccc21 [SH21, 1-butyl-2-((E)-2-((E)-3-(2-((E)-1-butyl-3,3-dimethylindolin-2-ylidene)ethylidene)-2-chlorocyclohex-1-en-1-yl)vinyl)-3,3-dimethyl-3H-indol-1-ium iodide]
- circulation in the blood stream ([1]; 48 h post-injection): circulating in the blood stream at 48 h post injection
- tissue/organ signals [4]: high background signals; also recorded: higher background tissue uptake
